Test results as given in patent US7074334B2, “Method for determining the binding behavior of ligands which specifically bind to target molecules” (priority 2001, dated 2006).
Values joined by “and” are separate entries in the source; they are usually repeats but may differ in a detail not shown here. Equal entries are not always repeated.

Assays:
D2-type receptors = target: T1, D2-type receptors (Sus scrofa, UniProt F1SM69); assay: MS binding assay with marker spiroperidol in striatal membrane fraction, unbound marker quantified; parameters: species or system porcine
T1 construct: As native material which contains both D1 and D2 receptors in sufficient amount; from tissue; host or cells: porcine brain striatum, membrane fraction

D1-type receptors = D1-type receptors (Sus scrofa, UniProt P50130); conditions: test substance 1 μmol/L
Chain of D1-type receptors (P50130 whole entry): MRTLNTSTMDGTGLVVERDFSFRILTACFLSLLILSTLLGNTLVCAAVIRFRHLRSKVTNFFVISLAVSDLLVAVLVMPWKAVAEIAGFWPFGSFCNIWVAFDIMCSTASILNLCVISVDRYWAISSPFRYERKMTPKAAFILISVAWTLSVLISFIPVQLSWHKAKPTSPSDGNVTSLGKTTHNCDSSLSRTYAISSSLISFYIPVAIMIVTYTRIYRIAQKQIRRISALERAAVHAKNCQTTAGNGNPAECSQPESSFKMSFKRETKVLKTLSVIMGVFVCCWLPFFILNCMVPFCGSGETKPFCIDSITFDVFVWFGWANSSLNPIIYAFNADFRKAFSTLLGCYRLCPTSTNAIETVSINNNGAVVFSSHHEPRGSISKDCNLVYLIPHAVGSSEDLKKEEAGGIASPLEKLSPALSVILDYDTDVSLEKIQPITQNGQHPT

T1 sequence (F1SM69 1-443): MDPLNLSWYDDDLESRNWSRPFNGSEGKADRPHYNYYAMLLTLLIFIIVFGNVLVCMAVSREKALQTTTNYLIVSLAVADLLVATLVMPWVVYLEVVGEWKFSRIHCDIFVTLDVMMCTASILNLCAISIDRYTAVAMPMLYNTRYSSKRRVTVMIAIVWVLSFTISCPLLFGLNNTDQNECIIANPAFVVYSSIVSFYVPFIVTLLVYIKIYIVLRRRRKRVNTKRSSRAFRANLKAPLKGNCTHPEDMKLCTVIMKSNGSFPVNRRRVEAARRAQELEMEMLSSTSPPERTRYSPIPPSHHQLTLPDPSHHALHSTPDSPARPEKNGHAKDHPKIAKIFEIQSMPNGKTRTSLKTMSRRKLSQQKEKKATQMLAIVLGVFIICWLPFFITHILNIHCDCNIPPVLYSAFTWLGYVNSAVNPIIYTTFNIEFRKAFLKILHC

| SMILES | inhibition of the specific binding of the marker spiroperidol to D2-type receptors (D2-type receptors; test substance 1 μmol/L) | inhibition of the specific binding of the marker SCH23390 to D1-type receptors (D1-type receptors) | concentration of unbound marker spiroperidol (D2-type receptors) |
| --- | --- | --- | --- |
| COC(=O)c1ccccc1 [methyl benzoate] | not capable of inhibiting | none is capable |  |
| O=C(CCCN1CCC2(CC1)C(=O)NCN2c1ccccc1)c1ccc(F)cc1 [spiroperidol] |  |  | 1.93 nmol/L and 2.75 nmol/L and 2.78 nmol/L and 2.29 nmol/L and 1.89 nmol/L |
